Data as given in publication PMC13233820, “Recruitment of Mre11 to recombination sites during meiosis” (Nature Communications, 2026).

How the values were obtained:
U-[13C,15N] Smt3 = test: NMR chemical shift perturbation, SIM3 peptides with Smt3; assay type: binding, Saccharomyces cerevisiae; conditions: 1.2 molar equivalents of peptide, 0.3 mM Smt3, 20 mM sodium phosphate, 20 mM NaCl pH 6.5, 298 K
Procedure: The samples contained 0.3–0.6 mM of U-[^13C,^15N] […] All NMR spectra were acquired at 298 K on a Bruker Avance III HD 800 MHz spectrometer, equipped with a TCI cryoprobe. The NMR data were acquired in TopSpin 3.6 (Bruker) and processed in NMRPipe v.7.5[76] and analyzed in CCPNMR v. 2.4.2[77]. Assignments of Smt3 backbone amide resonances were taken from literature[78] and verified by 3D HNCACB, HN(CO)CACB, and ^15N-edited NOESY-HSQC (mixing time 100 ms) spectra. Further assignments of methyl resonances were obtained from [^1H, ^13C] […] The assigned ^1H, ^13C and ^15N chemical shifts of the free and bound Smt3 have been deposited in the Biological Magnetic Resonance Bank (http://www.bmrb.wisc.edu/) under the accession number 53209.
The NMR binding experiments were performed by an incremental addition of wild-type or mutant SIM peptides (1.2 mM stocks in the working buffer) to 0.3 mM samples of U-[^13C,^15N] Smt3, with the spectral changes monitored in [^1H,^15N] HSQC spectra acquired at each increment and [^1H, ^13C] […] The average chemical shift perturbations (Δδavg) were calculated as Δδavg = (ΔδX^2/n + ΔδH^2/2)^0.5, where ΔδX and ΔδH are the chemical shift changes of the backbone amide nitrogens or methyl carbons (ΔδX) and protons (ΔδH) of Smt3 residues upon addition of 1.2 molar equivalents of SIM peptides, and n = 50 or 9 for the backbone amide and methyl groups, respectively.

Smt3 = target: T1, Smt3 (Saccharomyces cerevisiae, UniProt Q12306); test: Isothermal titration calorimetry, SIM3 peptides on Smt3; assay type: binding; conditions: 2 mM peptide in syringe, 20 mM NaPi 100 mM NaCl pH 7.5, 10% DMSO, 25 °C
T1 construct: 6xHis (C); made in house; host or cells: E. coli BL21 (DE3)pLysS
Procedure: The syringe contained 2 mM of peptide, while the cell held 150 µM or 300 µM of protein. […] For the ITC titrations, equal amounts of DMSO (10%) were included in both compartments to minimize the heat of dilution. Each titration consisted of a first injection of 0.4 µL, followed by 12-13 injections of 2 µL peptide into the cell, separated by intervals of 120 s. The first injection was discarded during the analysis of the data. The wild-type peptide titration on Smt3 was performed in duplicate. The Microcal LLC ITC200 Origin software was used to fit the data to a single binding site model.

T1 sequence (Q12306 whole entry): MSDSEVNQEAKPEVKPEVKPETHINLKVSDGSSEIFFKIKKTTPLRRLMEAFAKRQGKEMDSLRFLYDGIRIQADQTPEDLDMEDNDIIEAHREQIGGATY

Sequence | Average backbone amide chemical shift perturbation of Smt3 (in words) (U-[13C,15N] Smt3) | ITC interaction with Smt3 (Smt3)
ENDIIMVSTDE [wild-type SIM3 peptide] | induced strong backbone amide chemical shift to Smt3 residues I35, F36, F37, K38, I39 and R46 | 
ENDAIAVSTDE [mutant SIM3 peptide, SIM3 peptide with I633 and M635 mutated to alanine] |  | failed to interact with Smt3
